Read-outs that look alike come from different tables or passages of the source.
Experiment: Phase I study CXR1002-001: plasma pharmacokinetics (LC-MS/MS)
Assay type: in vivo, human
Conditions: human, plasma, oral; for concentration at 168 h: 168 hr (Day 8)
From the text: PK samples, PD (fasting) samples, blood glucose, and blood triglyceride samples, were taken over a 6-week period.
Dose limiting toxicity (DLT) will be based on the toxicity assessments over the first 3-week period of the repeat dosing schedule. PK samples (single blood sample) were taken on the following basis: • Every 6 weeks during the repeat dosing phase • If dosing is interrupted or stopped, samples will be taken at intervals according to patient convenience • PK sampling for safety evaluation may take place at any time, as clinically indicated
Plasma samples were collected after the single 50 mg dose at the following timepoints: Pre-dose, and then 0.25, 0.5, 0.75, 1, 1.5, 2, 3, 4, 6, 24, 48, and 72 hours after administration and then once weekly at weeks 2, 3, 4, 5, and 6 (days 8, 15, 22, 29, and 36). For patients treated with the weekly repeat dose, plasma samples were collected at the following timepoints: Pre-dose and then 2, 3, 4 and 24 hours after administration for a total of 6 weeks. Thereafter a single sample was collected every 6 weeks for monitoring of exposure during long term treatment. Plasma samples were processed at site and stored at −80° C. prior to batch shipment to the analytical laboratory.

[1] = 50 mg, Patient 004 Dose 50 mg, read-out: Concentration
[2] = 100 mg, Patient 005 Dose 100 mg, read-out: Concentration

SMILES: O=C(O)C(F)(F)C(F)(F)C(F)(F)C(F)(F)C(F)(F)C(F)(F)C(F)(F)F [CXR1002]
- concentration at 0.5 h (50 mg, Patient 003 Dose 50 mg, 0.5 hr): 11.3 µM
- concentration at 0.75 h (50 mg, Patient 003 Dose 50 mg, 0.75 hr): 17.1 µM
- concentration at 1 h (50 mg, Patient 003 Dose 50 mg, 1 hr): 20.7 µM
- concentration at 1.5 h (50 mg, Patient 003 Dose 50 mg, 1.5 hr): 24.6 µM
- concentration at 2 h (50 mg, Patient 003 Dose 50 mg, 2 hr, read-out: Concentration): 24.5 µM
- concentration at 3 h (50 mg, Patient 003 Dose 50 mg, read-out: Concentration): 21.2 µM
- concentration at 4 h (50 mg, Patient 003 Dose 50 mg, 4 hr, read-out: Concentration): 18 µM
- concentration at 24 h (50 mg, Patient 003 Dose 50 mg, 24 hr, read-out: Concentration): 19.5 µM
- concentration at 48 h (50 mg, Patient 003 Dose 50 mg, 48 hr): 18.1 µM
- concentration at 72 h (50 mg, Patient 003 Dose 50 mg, 72 hr): 18.4 µM
- concentration at 192 h (50 mg, Patient 003 Dose 50 mg, 192 hr (Day 8), read-out: Concentration): 8.6 µM
- concentration at 360 h (50 mg, Patient 003 Dose 50 mg, 360 hr (Day 15), read-out: Concentration): 7.2 µM
- concentration at 528 h (50 mg, Patient 003 Dose 50 mg, 528 hr (Day 22), read-out: Concentration): 6.5 µM
- concentration at 696 h (50 mg, Patient 003 Dose 50 mg, 696 hr (Day 29), read-out: Concentration): 5 µM
- concentration at 864 h (50 mg, Patient 003 Dose 50 mg, 864 hr (Day 36), read-out: Concentration): 6.5 µM
- concentration at 0 hr (50 mg, Patient 004 Dose 50 mg, 0 hr): 0.1 µM
- concentration at 2 hr (50 mg, Patient 004 Dose 50 mg, 2 hr, read-out: Concentration): 19.9 µM
- concentration at 4 hr (50 mg, Patient 004 Dose 50 mg, 4 hr, read-out: Concentration): 19.3 µM
- concentration at 24 hr (50 mg, Patient 004 Dose 50 mg, 24 hr (Day 2), read-out: Concentration): 14.4 µM
- concentration at 168 h [1]: 12.8 µM
- concentration at 170 h [1]: 35.7 µM
- concentration at 171 h [1]: 40.4 µM
- concentration at 172 h [1]: 36 µM
- concentration at 192 h (50 mg, Patient 004 Dose 50 mg, 192 hr (Day 9), read-out: Concentration): 22.5 µM
- concentration at 336 hr (50 mg, Patient 004 Dose 50 mg, 336 hr (Day 15), read-out: Concentration): 21.8 µM
- concentration at 338 hr (50 mg, Patient 004 Dose 50 mg, 338 hr, read-out: Concentration): 31.1 µM
- concentration at 339 hr (50 mg, Patient 004 Dose 50 mg, 339 hr, read-out: Concentration): 38.8 µM
- concentration at 340 hr (50 mg, Patient 004 Dose 50 mg, 340 hr, read-out: Concentration): 40.6 µM
- concentration at 360 hr (50 mg, Patient 004 Dose 50 mg, 360 hr (Day 16), read-out: Concentration): 38.8 µM
- concentration at 504 h (50 mg, Patient 004 Dose 50 mg, 504 hr (Day 22), read-out: Concentration): 33.4 µM
- concentration at 506 h (50 mg, Patient 004 Dose 50 mg, 506 hr, read-out: Concentration): 46.3 µM
- concentration at 507 h (50 mg, Patient 004 Dose 50 mg, 507 hr, read-out: Concentration): 50.4 µM
- concentration at 508 h (50 mg, Patient 004 Dose 50 mg, 508 hr, read-out: Concentration): 47.9 µM
- concentration at 528 h (50 mg, Patient 004 Dose 50 mg, 528 hr (Day 23), read-out: Concentration): 50 µM
- concentration at 672 hr (50 mg, Patient 004 Dose 50 mg, 672 hr (Day 29), read-out: Concentration): 52.3 µM
- concentration at 674 hr (50 mg, Patient 004 Dose 50 mg, 674 hr, read-out: Concentration): 65.8 µM
- concentration at 675 hr (50 mg, Patient 004 Dose 50 mg, 675 hr, read-out: Concentration): 61.7 µM
- concentration at 676 hr (50 mg, Patient 004 Dose 50 mg, 676 hr, read-out: Concentration): 56.7 µM
- concentration at 696 hr (50 mg, Patient 004 Dose 50 mg, 696 hr (Day 30), read-out: Concentration): 77.5 µM
- concentration at 840 h (50 mg, Patient 004 Dose 50 mg, 840 hr (Day 36), read-out: Concentration): 63 µM
- concentration at 842 h (50 mg, Patient 004 Dose 50 mg, 842 hr, read-out: Concentration): 78.6 µM
- concentration at 843 h (50 mg, Patient 004 Dose 50 mg, 843 hr, read-out: Concentration): 80.5 µM
- concentration at 864 h (50 mg, Patient 004 Dose 50 mg, 864 hr (Day 37), read-out: Concentration): 81.1 µM
- half-life (50 mg, after a single dose, 6 week sampling period, read-out: half-life of elimination): > 42 days
- concentration at 0 h (100 mg, Patient 005 Dose 100 mg, 0 hr): 0.23 µM
- concentration at 2 h (100 mg, Patient 005 Dose 100 mg, 2 hr, read-out: Concentration): 19.8 µM
- concentration at 3 h [2]: 23 µM
- concentration at 4 h (100 mg, Patient 005 Dose 100 mg, 4 hr, read-out: Concentration): 23.7 µM
- concentration at 24 h (100 mg, Patient 005 Dose 100 mg, 24 hr (Day 2), read-out: Concentration): 19.9 µM
- concentration at 168 h [2]: 19 µM
- concentration at 170 h [2]: 42.9 µM
- concentration at 171 h [2]: 50.8 µM
- concentration at 172 h [2]: 45.7 µM
- concentration at 192 h (100 mg, Patient 005 Dose 100 mg, 192 hr (Day 9), read-out: Concentration): 34.4 µM
- concentration at 336 h (100 mg, Patient 005 Dose 100 mg, 336 hr (Day 15), read-out: Concentration): 47.8 µM
- concentration at 338 h (100 mg, Patient 005 Dose 100 mg, 338 hr, read-out: Concentration): 80.2 µM
- concentration at 339 h (100 mg, Patient 005 Dose 100 mg, 339 hr, read-out: Concentration): 70.1 µM
- concentration at 340 h (100 mg, Patient 005 Dose 100 mg, 340 hr, read-out: Concentration): 53.9 µM
